# Measurements: US20250123282A1, “METHODS FOR EVALUATION AND TREATMENT OF TYROSINE KINASE INHIBITOR (TKI)-RESISTANT ACUTE MYELOID LEUKEMIA” (LOMA LINDA UNIVERSITY, priority 2021, published 2025)
# Experiments:
# MV4-11 blasts = test: GILT combined with MIF inhibitor or CXCR2 inhibitor on MV4-11 blasts in vitro (FACS); type: cell-based, human; conditions: 80 nM GILT, 50 uM SB225002, 3 days
# Method: Whether targeting the MIF-CXCR2 signaling pathway would effectively treat AML blasts were investigated. First, the combination of GILT with ribosomal protein S19 (RPS19) on MV4-11 blasts was tested in vitro. RPS19, a MIF inhibitor, has been reported to suppress cisplatin-activated MIF-CD74-NFκB signaling pathway in acute kidney injury. […] The combination of 80 nM GILT with 50 uM SB225002, a CXCR2-inhibitor (CXCR2-I) on MV4-11 blasts in vitro were examined. […] The anti-leukemic effect of combining GILT with CXCR2-I on primary BMMNC ex vivo were examined. […] There may be alternative cytokine pathways compensating for the defect of MIF-CXCR2 pathways.
# For MIF in vitro experiments, different doses of MIF were added to 1 ml of 1×10^6 MV4-11 cells or RAW264.7 cells for each experimental group in 24-well plates. Two days after the one dose treatment, cells were then collected for either analyses by FACS and qPCR. As combination agents to treat blasts in vitro or ex vivo, one dose of 80 nM GILT with one dose of different inhibitors were added to 1 ml of 1×10^6 MV4-11 cells or 1 ml of 0.5-1×10^6 primary AML BMMNC for each experimental group in 24-well plates. Dose-dependent experiments of CXCR2 inhibitor and NFκB inhibitor with or without 80 nM GILT were performed. […] Three days after the one dose treatment, cells were then collected for either analyses by FACS and qPCR.
# (§1) Flow Cytometry (FACS). Cells were harvested and examined for the expression of cell surface biomarkers (CD) and intracellular proteins by multichromatic FACS as previously described. About 1×10^4˜10^6 cells in 100 μl FACS buffer (PBS containing 1% FBS and 0.05% sodium azide) were stained with various fluorescence-conjugated antibodies specific for the desired cell surface proteins at 4° C. for 30 min. The surface-stained cells were then fixed and permeabilized using the appropriate reagents (e.g. the BD Pharmingen Cytofix/Cytoperm buffer) and stained with different fluorescence-conjugated antibodies specific for the desired intracellular proteins at 4° C. for 2 hours in the permeabilizing buffer (e.g. the BD Perm/Wash buffer). Concentrations of the Abs were used per the manufacturers' recommendations. Finally, the cells were washed twice in the permeabilizing buffer and twice in the FACS buffer before being analyzed on the BD FACSAria II. Data was analyzed using the FlowJo software (Tree Star Inc., Ashland, OR).
# MOLM-14 cells = test: FACS of TKI-treated MOLM-14 cells in vitro (viable blasts, pBAD); type: cell-based, human; conditions: 3 days after one dose of 80 nM TKI; vs non-treatment controls
# Method: The AML cells were analyzed at different time points after exposure to TKI (3 days, 10 days, 20 days, and 28 days). […] After 3 days, FACS of the surface markers and intracellular proteins, including CD14, CD33, CD44, and Ki67, were performed. FIGS. 1A-1E depicts therapeutic effect of different TKIs on MV4-11 and MOLM-14 cells in vitro (N=6). […] The circles indicate the group of viable blasts located in a FACS plot and green arrows indicate the dying tendency of blasts which will become positive for viability dye during the next few days. FIGS. 1C and 1D are graphical representations of the cumulative FACS percentage data of viable MV4-11 and MOLM-14 cells. *P<0.05. […]
# as §1, with “Cells were harvested and examined for the expression of cell surface biomarkers (CD) and intracellular proteins by multichromatic FACS as previously described.” left out, “Concentrations of the Abs were used per the manufacturers' recommendations.” left out, “Data was analyzed using the FlowJo software (Tree Star Inc., Ashland, OR).” left out
SMILES,percentage of viable CD44+ MV4-11 blasts (MV4-11 blasts),percentage of Ki67+CD44+ blasts (MV4-11 blasts; MV4-11),viable MOLM-14 blasts (FACS) (MOLM-14 cells)
"CCc1nc(C(N)=O)c(Nc2ccc(N3CCC(N4CCN(C)CC4)CC3)c(OC)c2)nc1NC1CCOCC1 [GILT, Gilteritinib]",12.2%,12.2%,–
"CC(C)(C)c1cc(NC(=O)Nc2ccc(-c3cn4c(n3)sc3cc(OCCN5CCOCC5)ccc34)cc2)no1 [QUIZ, Quizartinib]",–,–,more effective
